From patent US20140271474A1, “INHIBITOR PROBES FOR IMAGING SODIUM-GLUCOSE COTRANSPORTERS IN HEALTH AND DISEASE” (THE REGENTS OF THE UNIVERSITY OF CALIFORNIA, priority 2011, published 2014)
Each block holds one molecule with its values, some of them ahead of it.

Tests used:
[1] = test system: SGLTs; conditions: cited from earlier work
[2] = test system: SGLT2 over SGLT1; conditions: cited from earlier work
[3] = biological target: T1, SGLT2 (Rattus norvegicus, UniProt P53792)
T1 sequence (P53792 1-670): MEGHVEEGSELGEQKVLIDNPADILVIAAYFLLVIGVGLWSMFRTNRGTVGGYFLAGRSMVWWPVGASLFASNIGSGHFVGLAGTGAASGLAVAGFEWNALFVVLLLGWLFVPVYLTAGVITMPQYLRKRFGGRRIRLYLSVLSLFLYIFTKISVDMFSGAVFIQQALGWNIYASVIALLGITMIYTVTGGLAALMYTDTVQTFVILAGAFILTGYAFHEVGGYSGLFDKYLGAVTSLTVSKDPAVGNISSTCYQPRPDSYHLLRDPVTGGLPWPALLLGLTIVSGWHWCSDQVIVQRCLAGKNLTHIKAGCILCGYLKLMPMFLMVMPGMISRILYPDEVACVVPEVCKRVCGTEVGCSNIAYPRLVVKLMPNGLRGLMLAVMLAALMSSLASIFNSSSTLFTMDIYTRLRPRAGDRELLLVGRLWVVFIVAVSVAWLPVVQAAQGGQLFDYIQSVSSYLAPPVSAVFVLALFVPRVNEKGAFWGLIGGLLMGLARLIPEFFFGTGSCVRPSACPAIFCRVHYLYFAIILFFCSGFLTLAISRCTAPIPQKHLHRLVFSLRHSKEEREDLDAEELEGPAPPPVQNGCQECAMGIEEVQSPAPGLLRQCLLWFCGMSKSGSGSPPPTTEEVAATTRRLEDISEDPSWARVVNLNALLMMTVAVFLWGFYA

[4] = cited from earlier work
[5] = biological target: SGLT2 (Homo sapiens, UniProt P31639); conditions: read-out: Ki for SGLT2
SGLT2 (Homo sapiens, UniProt P31639), sequence (P31639 whole entry): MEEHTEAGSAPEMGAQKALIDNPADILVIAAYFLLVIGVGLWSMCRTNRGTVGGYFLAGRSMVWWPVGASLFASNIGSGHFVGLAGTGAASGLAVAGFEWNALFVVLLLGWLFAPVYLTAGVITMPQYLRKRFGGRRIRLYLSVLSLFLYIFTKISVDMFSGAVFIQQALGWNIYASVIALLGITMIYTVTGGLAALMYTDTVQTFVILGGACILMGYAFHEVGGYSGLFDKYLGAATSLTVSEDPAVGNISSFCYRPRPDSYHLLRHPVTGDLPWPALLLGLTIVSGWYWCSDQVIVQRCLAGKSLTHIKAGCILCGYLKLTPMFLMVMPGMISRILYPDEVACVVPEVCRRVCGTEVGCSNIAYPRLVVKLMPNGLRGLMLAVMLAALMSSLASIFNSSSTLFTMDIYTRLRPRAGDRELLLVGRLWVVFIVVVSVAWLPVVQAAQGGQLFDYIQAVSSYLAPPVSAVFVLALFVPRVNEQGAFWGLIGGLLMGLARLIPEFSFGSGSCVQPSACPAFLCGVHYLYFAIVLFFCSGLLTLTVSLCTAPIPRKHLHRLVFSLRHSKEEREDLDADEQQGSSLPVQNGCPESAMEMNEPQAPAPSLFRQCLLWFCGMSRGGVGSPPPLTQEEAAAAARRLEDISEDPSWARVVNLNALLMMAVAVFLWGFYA
Description: A method of making radiolabeled inhibitors pyranosides is also provided.

[6] = test system: GLUTs; conditions: cited from earlier work
[7] = biological target: T2, SGLT1 (Homo sapiens, UniProt P13866); conditions: specific, non-metabolized substrate; cited from earlier work
T2 sequence (P13866 1-664): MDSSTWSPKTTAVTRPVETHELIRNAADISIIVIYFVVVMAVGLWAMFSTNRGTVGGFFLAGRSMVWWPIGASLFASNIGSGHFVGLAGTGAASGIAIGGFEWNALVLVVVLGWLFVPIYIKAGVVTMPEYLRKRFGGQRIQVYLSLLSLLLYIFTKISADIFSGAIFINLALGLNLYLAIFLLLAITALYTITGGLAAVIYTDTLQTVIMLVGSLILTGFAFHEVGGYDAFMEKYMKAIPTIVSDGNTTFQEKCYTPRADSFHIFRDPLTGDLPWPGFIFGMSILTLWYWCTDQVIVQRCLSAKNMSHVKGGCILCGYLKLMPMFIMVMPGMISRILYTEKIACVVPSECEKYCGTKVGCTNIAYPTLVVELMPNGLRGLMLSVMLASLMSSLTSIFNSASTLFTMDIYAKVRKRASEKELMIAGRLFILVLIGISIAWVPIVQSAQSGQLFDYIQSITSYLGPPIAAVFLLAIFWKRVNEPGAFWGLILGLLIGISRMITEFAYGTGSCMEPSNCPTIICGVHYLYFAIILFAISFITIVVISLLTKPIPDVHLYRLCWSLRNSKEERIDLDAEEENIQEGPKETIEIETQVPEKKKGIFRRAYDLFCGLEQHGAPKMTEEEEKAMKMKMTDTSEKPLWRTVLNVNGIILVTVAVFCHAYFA

[8] = for 1-25 hours after oral administration of dapagliflozin; cited from earlier work
[9] = major metabolite of dapagliflozin; cited from earlier work
[10] = cited from earlier work; remark: listed apart in the source
[11] = images summed 50-60 minutes post injection
[12] = type 2 diabetic patients, tested doses

SMILES: O=C[C@H]([18F])[C@@H](O)[C@H](O)[C@H](O)CO [2-FDG, 2-deoxy-2-[18F]fluoro-D-glucose]
substrate for SGLTs [1]: not a substrate

SMILES: O=CC[C@@H](O)[C@H](O)[C@H](O)CO [2-deoxy-D-glucose]
substrate for SGLTs [1]: poor substrates

SMILES: Cc1cc(OCCCNCC(C)(C)C(N)=O)ccc1Cc1c(O[C@@H]2O[C@H](CO)[C@@H](O)[C@H](O)[C@H]2O)n[nH]c1C(C)C [DSP-3235]
selectivity among SGLTs (in words) [2]: targets SGLT1

[18F]-dapagliflozin binding to the kidney cortex after pre-injection of the substance [3, 11]: completely blocked
SMILES: O=C(CCc1ccc(O)cc1)c1c(O)cc(O)cc1O[C@@H]1O[C@H](CO)[C@@H](O)[C@H](O)[C@H]1O [Phlorizin]

SMILES: COC(=O)OC[C@H]1O[C@@H](Oc2cc(C)cc(O)c2C(=O)CCc2ccc3occc3c2)[C@H](O)[C@@H](O)[C@@H]1O [T-1095]
selectivity among SGLTs (in words) [2]: nonselective
blood glucose levels ([4]; diabetic animals): lowered blood glucose levels
renal glucose excretion ([4]; diabetic animals): resulted in renal glucose excretion
hyperinsulinemia and hypertriglyceridemia ([4]; diabetic rodents): reduced hyperinsulinemia and hypertriglyceridemia
post-prandial hyperglycemia ([4]; diabetic rodents): suppressed post-prandial hyperglycemia
absorption of the pro-drug ([4]; oral): absorbed from the gut into the circulation

Ki [5]: 1 to 5 nM
SMILES: CCOc1ccc(Cc2cc([C@@H]3O[C@H](CO)[C@@H](F)[C@H](O)[C@H]3O)ccc2Cl)cc1 [[18F]-dapagliflozin, (1S)-1,5-anhydro-1-C-{4-chloro-3-[(4-ethoxyphenyl)methyl]phenyl}-4-[18F]-4-deoxy-D-glucitol]

SMILES: CCOc1ccc(Cc2cc([C@@H]3O[C@H](CO)[C@@H]([18F])[C@H](O)[C@H]3O)ccc2Cl)cc1 [[18F]-dapagliflozin, (1S)-1,5-anhydro-1-C-{4-chloro-3-[(4-ethoxyphenyl)methyl]phenyl}-4-[18F]-4-deoxy-D-glucitol]
tracer binding site in microPET image [3, 11]: binding to the outer cortex of the kidney
18F-activity in the intestine ([3]; with pre-injection of dapagliflozin or phlorizin): excretion by the liver into bile

SMILES: CO[C@H]1O[C@H](CO)[C@@H](O)[C@H](O)[C@H]1O [alpha-methyl-D-glucopyranoside]
substrate for GLUTs [6]: not a substrate
concentration reached in cells above plasma concentrations [7]: ≤ 800 fold

SMILES: CCOc1ccc(Cc2cc([C@@H]3O[C@H](CO)[C@@H](O)[C@H](O[C@@H]4O[C@H](C(=O)O)[C@@H](O)[C@H](O)[C@H]4O)[C@H]3O)ccc2Cl)cc1 [dapagliflozin 3-O-glucuronide]
plasma level of the metabolite versus native drug [8]: higher than the native drug
activity of the metabolite [9]: inactive

[18F]-dapagliflozin binding to the kidney cortex after pre-injection of the substance [3, 11]: completely blocked
SMILES: CCOc1ccc(Cc2cc([C@@H]3O[C@H](CO)[C@@H](O)[C@H](O)[C@H]3O)ccc2Cl)cc1 [dapagliflozin]
weight loss ([10]; over 28-58 weeks): up to 3.5 Kg
reduction in fasting serum glucose [10, 12]: 22±10%
reduction in post-prandial glucose absorption (area under the plasma glucose concentration curve) [10, 12]: 20±10%
sustained urinary glucose excretion [10, 12]: 30-65 gram/day
increase in hematocrit ([10]; type 2 diabetic patients): up to 3%
increase in urine volume ([10]; type 2 diabetic patients): up to 470 ml/day
loss of urinary glucose ([10]; type 2 diabetic patients): 200 to 300 kcal/day
reduction in diastolic blood pressure ([10]; type 2 diabetic patients): 2-5 mm Hg

SMILES: O=C[C@@H](O)[C@@H](O)[C@H](O)[C@H](O)CO [mannose]
substrate for SGLTs [1]: poor substrates

SMILES: Cc1c(Cc2ccc(OC(C)C)cc2)c(O[C@@H]2O[C@H](CO)[C@@H](O)[C@H](O)[C@H]2O)nn1C(C)C [remogliflozin]
selectivity among SGLTs (in words) [2]: markedly increased selectivity for SGLT2
